Results reported in the NIST ThermoML archive (doi:10.1016/j.jct.2013.12.025).

Experiment: refractive index (Na D-line) (dimensionless); xn = mol fraction of the nth substance listed
Conditions: 101 kPa, Liquid, Standard Abbe refractometry

C=C[Si](C)(C)O[Si](C)(C)C=C [1,3-diethenyl-1,1,3,3-tetramethyldisiloxane] + Fc1ccccc1
refractive index
Conditions	283.15 K	288.15 K	293.15 K	298.15 K	303.15 K
x1 = 0.05	1.46591	1.46302	1.4601	1.45724	1.45427
x1 = 0.1	1.46088	1.45799	1.4551	1.45222	1.44927
x1 = 0.15	1.45637	1.45349	1.45063	1.44775	1.44482
x1 = 0.1993	1.45237	1.44949	1.44664	1.44378	1.44083
x1 = 0.25	1.44858	1.44572	1.44288	1.44002	1.43708
x1 = 0.2999	1.44521	1.44238	1.43954	1.43671	1.43382
x1 = 0.35	1.44212	1.43928	1.43649	1.43366	1.43075
x1 = 0.4	1.43929	1.43648	1.43368	1.43086	1.42798
x1 = 0.45	1.43671	1.4339	1.43109	1.42829	1.42546
x1 = 0.5	1.43427	1.43147	1.42871	1.42592	1.42309
x1 = 0.5501	1.43205	1.42925	1.42651	1.42374	1.42092
x1 = 0.6	1.42996	1.42721	1.42446	1.42171	1.41891
x1 = 0.6501	1.42804	1.4253	1.42257	1.41982	1.41705
x1 = 0.7	1.42627	1.42353	1.4208	1.41808	1.41532
x1 = 0.7501	1.42458	1.42185	1.41913	1.41642	1.41369
x1 = 0.8	1.42302	1.42031	1.41762	1.41493	1.41219
x1 = 0.85	1.42152	1.41883	1.41615	1.41349	1.4108
x1 = 0.8998	1.42015	1.41747	1.4148	1.41213	1.40945
x1 = 0.95	1.41882	1.41617	1.41352	1.41087	1.40819
x1 = 1	1.41758	1.41493	1.41227	1.40963	1.40695

C=C[Si](C)(C)O[Si](C)(C)C=C [1,3-diethenyl-1,1,3,3-tetramethyldisiloxane] + O=[N+]([O-])c1ccccc1
refractive index
Conditions	283.15 K	288.15 K	293.15 K	298.15 K	303.15 K
x1 = 0.05	1.54466	1.54219	1.5397	1.53724	1.5348
x1 = 0.1	1.53289	1.53042	1.52796	1.52547	1.52302
x1 = 0.15	1.52202	1.51955	1.51705	1.51459	1.51211
x1 = 0.2	1.51193	1.50945	1.50694	1.50445	1.50196
x1 = 0.25	1.50266	1.50017	1.49764	1.49511	1.49265
x1 = 0.3	1.49408	1.49154	1.48901	1.48643	1.48396
x1 = 0.3508	1.48595	1.48341	1.48085	1.47825	1.47577
x1 = 0.4001	1.47862	1.47608	1.47352	1.47089	1.46841
x1 = 0.4501	1.4717	1.46914	1.46659	1.46395	1.46144
x1 = 0.4999	1.46522	1.46267	1.46009	1.45748	1.45493
x1 = 0.55	1.45917	1.45661	1.45401	1.45139	1.44883
x1 = 0.6001	1.45344	1.45088	1.4483	1.44568	1.44308
x1 = 0.6487	1.44824	1.44565	1.44307	1.44043	1.43783
x1 = 0.6999	1.44306	1.44044	1.43784	1.43521	1.43261
x1 = 0.7499	1.43821	1.43565	1.43306	1.43043	1.42778
x1 = 0.7999	1.4337	1.43109	1.42845	1.42584	1.42318
x1 = 0.8497	1.42937	1.42677	1.42414	1.42152	1.41887
x1 = 0.9	1.42527	1.42262	1.41999	1.41736	1.41471
x1 = 0.9499	1.42134	1.4187	1.41606	1.41343	1.41079
x1 = 1	1.4176	1.41495	1.41227	1.40965	1.407
